Data published in BindingDB's records for doi:10.1021/cc9800374 (Smithkline Beecham Pharmaceuticals, 1999).

Assays:
Cathepsin K = target: T1, Cathepsin K (Homo sapiens, UniProt P43235); assay: Inhibition Assay; settings: pH 5.5
T1 sequence (P43235 whole entry): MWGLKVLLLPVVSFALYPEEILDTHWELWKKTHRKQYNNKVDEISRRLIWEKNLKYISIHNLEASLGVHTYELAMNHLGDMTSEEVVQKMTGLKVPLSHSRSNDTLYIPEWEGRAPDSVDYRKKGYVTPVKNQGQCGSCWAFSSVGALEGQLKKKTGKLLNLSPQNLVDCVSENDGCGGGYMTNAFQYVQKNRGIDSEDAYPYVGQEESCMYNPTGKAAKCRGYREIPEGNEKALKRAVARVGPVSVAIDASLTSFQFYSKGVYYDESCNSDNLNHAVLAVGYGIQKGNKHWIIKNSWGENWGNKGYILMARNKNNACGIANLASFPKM
Experimental: (§1) Inhibitors were assayed against human liver Cathepsin L and B. Inhibitors were also evaluated for inhibition against purified recombinant Cathepsin K.

Cathepsin L = Cathepsin L (Homo sapiens, UniProt Q6LAF7); assay: Inhibition Assay; settings: pH 5.5
Experimental: as §1

Sequence of Cathepsin L (Q6LAF7 whole entry): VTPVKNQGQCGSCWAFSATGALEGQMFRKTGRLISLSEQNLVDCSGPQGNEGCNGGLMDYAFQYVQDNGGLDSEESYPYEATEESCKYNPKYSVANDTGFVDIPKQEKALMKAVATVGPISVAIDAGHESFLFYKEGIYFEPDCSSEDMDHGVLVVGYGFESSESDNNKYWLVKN

Row | Compound | Ki (Cathepsin K) [nM] | Ki (Cathepsin L) [nM]
1 | CC(=O)N[C@@H](CC(C)C)C(=O)NC(C)C(=O)CNC(=O)Cc1cccc(-c2ccccn2)c1 (stereo partly specified) [Cathepsin Inhibitor, Column 1 Row 1] | 200 | > 1000
2 | CC(=O)N[C@@H](Cc1ccccc1)C(=O)NC(C)C(=O)CNC(=O)Cc1cccc(-c2ccccn2)c1 (stereo partly specified) [Cathepsin Inhibitor, Column 1 Row 2] | > 1000 | > 1000
3 | CC(=O)N[C@H](C(=O)NC(C)C(=O)CNC(=O)Cc1cccc(-c2ccccn2)c1)C(C)C (stereo partly specified) [Cathepsin Inhibitor, Column 1 Row 3] | > 1000 | > 1000
4 | CC(C)C[C@H](NC(=O)c1ccc(C(F)(F)F)cc1)C(=O)NC(C)C(=O)CNC(=O)Cc1cccc(-c2ccccn2)c1 (stereo partly specified) [Cathepsin Inhibitor, Column 2 Row 1] | 8.4 | 230
5 | CC(NC(=O)[C@H](Cc1ccccc1)NC(=O)c1ccc(C(F)(F)F)cc1)C(=O)CNC(=O)Cc1cccc(-c2ccccn2)c1 (stereo partly specified) [Cathepsin Inhibitor, Column 2 Row 2] | 90 | 120
6 | CC(NC(=O)[C@@H](NC(=O)c1ccc(C(F)(F)F)cc1)C(C)C)C(=O)CNC(=O)Cc1cccc(-c2ccccn2)c1 (stereo partly specified) [Cathepsin Inhibitor, Column 2 Row 3] | 430 | > 1000
7 | COc1ccc(C(=O)N[C@@H](CC(C)C)C(=O)NC(C)C(=O)CNC(=O)Cc2cccc(-c3ccccn3)c2)cc1OC (stereo partly specified) [Cathepsin Inhibitor, Column 3 Row 1] | 7.4 | 150
8 | COc1ccc(C(=O)N[C@@H](Cc2ccccc2)C(=O)NC(C)C(=O)CNC(=O)Cc2cccc(-c3ccccn3)c2)cc1OC (stereo partly specified) [Cathepsin Inhibitor, Column 3 Row 2] | 25 | 53
9 | COc1ccc(C(=O)N[C@H](C(=O)NC(C)C(=O)CNC(=O)Cc2cccc(-c3ccccn3)c2)C(C)C)cc1OC (stereo partly specified) [Cathepsin Inhibitor, Column 3 Row 3] | > 1000 | > 1000
10 | CC(C)C[C@H](NC(=O)c1ccc2ncccc2c1)C(=O)NC(C)C(=O)CNC(=O)Cc1cccc(-c2ccccn2)c1 (stereo partly specified) [Cathepsin Inhibitor, Column 4 Row 1] | 18 | 130
11 | CC(NC(=O)[C@H](Cc1ccccc1)NC(=O)c1ccc2ncccc2c1)C(=O)CNC(=O)Cc1cccc(-c2ccccn2)c1 (stereo partly specified) [Cathepsin Inhibitor, Column 4 Row 2] | 170 | 36
12 | CC(NC(=O)[C@@H](NC(=O)c1ccc2ncccc2c1)C(C)C)C(=O)CNC(=O)Cc1cccc(-c2ccccn2)c1 (stereo partly specified) [Cathepsin Inhibitor, Column 4 Row 3] | > 1000 | > 1000
13 | CC(C)C[C@H](NC(=O)c1ccc2ccccc2n1)C(=O)NC(C)C(=O)CNC(=O)Cc1cccc(-c2ccccn2)c1 (stereo partly specified) [Cathepsin Inhibitor, Column 5 Row 1] | 1.7 | 130
14 | CC(NC(=O)[C@H](Cc1ccccc1)NC(=O)c1ccc2ccccc2n1)C(=O)CNC(=O)Cc1cccc(-c2ccccn2)c1 (stereo partly specified) [Cathepsin Inhibitor, Column 5 Row 2] | 170 | 110
15 | CC(NC(=O)[C@@H](NC(=O)c1ccc2ccccc2n1)C(C)C)C(=O)CNC(=O)Cc1cccc(-c2ccccn2)c1 (stereo partly specified) [Cathepsin Inhibitor, Column 5 Row 3] | 830 | > 1000
16 | CC(C)C[C@H](NC(=O)c1cc2ccccc2s1)C(=O)NC(C)C(=O)CNC(=O)Cc1cccc(-c2ccccn2)c1 (stereo partly specified) [Cathepsin Inhibitor, Column 6 Row 1] | 1.3 | 90
17 | CC(NC(=O)[C@H](Cc1ccccc1)NC(=O)c1cc2ccccc2s1)C(=O)CNC(=O)Cc1cccc(-c2ccccn2)c1 (stereo partly specified) [Cathepsin Inhibitor, Column 6 Row 2] | 16 | 18
18 | CC(NC(=O)[C@@H](NC(=O)c1cc2ccccc2s1)C(C)C)C(=O)CNC(=O)Cc1cccc(-c2ccccn2)c1 (stereo partly specified) [Cathepsin Inhibitor, Column 6 Row 3] | 300 | > 1000
